Experimental data as given in ChEMBL document CHEMBL1944622, “Constituents of Dalbergia sissoo Roxb. leaves with osteogenic activity” (Bioorg Med Chem Lett, 2012).
Active and inactive are the calls of the source. The calls are words filed in the database; no cut-off is given here.

How the values were obtained:
Ishikawa [1] = experiment: Antiestrogenic activity in ER expressing human Ishikawa cells assessed as inhibition of ALP activity at 1 pM to 1 uM; format: functional, cell-based
[2] = Upregulation of BMP-2 in rat primary calvarial osteoblast cells after 48 hrs by qPCR analysis relative to control; format: functional, cell-based
Calvarial osteoblast [3] = experiment: Osteogenic activity in rat primary calvarial osteoblasts assessed as induction of ALP activity at 1 pM to 1 uM after 10 days by colorimetry; format: functional, cell-based
Calvarial osteoblast [4] = experiment: Osteogenic activity in rat primary calvarial osteoblasts assessed as induction of ALP activity at 1 pM to 1 uM after 10 days by colorimetry in presence of anti-estrogen ICI-182780; format: functional, cell-based
[5] = Toxicity in rat calvarial osteoblast cells at 1 pM to 1 uM after 48 hrs by MTT assay; format: cell-based
Ishikawa [6] = experiment: Estrogenic activity in ER expressing human Ishikawa cells assessed as induction of ALP activity at 1 pM to 1 uM; format: functional, cell-based
Ishikawa [7] = experiment: Estrogenic activity in ER expressing human Ishikawa cells assessed as induction of ALP activity at 1 pM to 1 uM in presence of 17beta-E2; format: functional, cell-based
Calvarial osteoblast [8] = experiment: Induction of rat calvarial osteoblast mineralization assessed as increase in formation of mineralized calcium nodules at 10 nM after 21 days by alizarin red-S staining-based assay; format: functional, cell-based
Ishikawa [9] = experiment: Estrogenic activity in ER expressing human Ishikawa cells assessed as induction of ALP activity at 10 nM; format: functional, cell-based
Calvarial osteoblast [10] = experiment: Osteogenic activity in rat calvarial osteoblasts assessed as induction of ALP activity at 10 nM after 48 hrs by spectrophotometry in presence of anti-estrogen ICI-182780; format: functional, cell-based
Rattus norvegicus [11] = experiment: Osteogenic activity in rat assessed as increase in collagen-1 expression in calvaria at 1 mg/kg, sc qd for 3 days by qPCR analysis; format: functional, organism-based; set-up: dose 1 mg/kg
Rattus norvegicus [12] = experiment: Osteogenic activity in rat assessed as increase in collagen-1 expression in calvaria at 5 mg/kg, sc qd for 3 days by qPCR analysis; format: functional, organism-based; set-up: dose 5 mg/kg
Calvarial osteoblast [13] = experiment: Induction of rat calvarial osteoblast mineralization assessed as increase in formation of mineralized calcium nodules at 1 pM after 21 days by alizarin red-S staining-based assay; format: functional, cell-based
Rattus norvegicus [14] = experiment: Osteogenic activity in rat assessed as increase in ALP expression in calvaria at 1 mg/kg, sc qd for 3 days by qPCR analysis; format: functional, organism-based; set-up: dose 1 mg/kg
Rattus norvegicus [15] = experiment: Osteogenic activity in rat assessed as increase in ALP expression in calvaria administered as sc qd for 3 days by qPCR analysis; format: functional, organism-based
Rattus norvegicus [16] = experiment: Osteogenic activity in rat assessed as increase in ALP expression in calvaria at 10 mg/kg, sc qd for 3 days by qPCR analysis; format: functional, organism-based; set-up: dose 10 mg/kg
Rattus norvegicus [17] = experiment: Osteogenic activity in rat assessed as increase in ALP expression in calvaria at 5 mg/kg, sc qd for 3 days by qPCR analysis; format: functional, organism-based; set-up: dose 5 mg/kg
Rattus norvegicus [18] = experiment: Osteogenic activity in rat assessed as increase in collagen-1 expression in calvaria at 10 mg/kg, sc qd for 3 days by qPCR analysis; format: functional, organism-based; set-up: dose 10 mg/kg
Calvarial osteoblast [19] = experiment: Osteogenic activity in rat primary calvarial osteoblasts assessed as induction of ALP activity at 1 pM after 10 days by colorimetry; format: functional, cell-based
Ishikawa [20] = experiment: Estrogenic activity in ER expressing human Ishikawa cells assessed as induction of ALP activity at 100 pM relative to control; format: functional

Q: For `O=c1c(-c2ccc(O)cc2)coc2cc(O)cc(O)c12` [GENISTEIN], which Activity (Ishikawa [1]) is on record?
A: The Activity was “inactive”.

Q: And the fold change (FC) [2]?
A: Its fold change (FC) is 5.

Q: And the Activity (Calvarial osteoblast [3])?
A: Its Activity is “Active”.

Q: And the Activity (Calvarial osteoblast [4])?
A: The Activity was “Active”.

Q: What about the Activity [5] of the same compound?
A: The Activity was “Non-toxic”.

Q: And the Activity (Ishikawa [6])?
A: The Activity was “inactive”.

Q: And the inhibition (Ishikawa [7])?
A: Its inhibition is “inactive”.

Q: What about the Activity (Calvarial osteoblast [8]) of the same compound?
A: The Activity was “Active”.

Q: Which Activity (Calvarial osteoblast [3]) does the source give for `COc1cc(OC)c(-c2coc3cc(O)c(OC)c(O)c3c2=O)cc1OC` here?
A: The Activity was “inactive”.

Q: With `C[C@@H]1O[C@@H](OC[C@H]2O[C@@H](Oc3c(-c4ccc(O)cc4)oc4cc(O)cc(O)c4c3=O)[C@H](O)[C@@H](O)[C@@H]2O)[C@H](O)[C@H](O)[C@H]1O` as the compound, how does the Activity (Calvarial osteoblast [3]) read?
A: Its Activity is “inactive”.

Q: For `COc1ccc(-c2coc3cc(O[C@@H]4O[C@H](CO[C@@H]5OC[C@](O)(CO)[C@H]5O)[C@@H](O)[C@H](O)[C@H]4O)cc(O)c3c2=O)cc1`, which Activity (Calvarial osteoblast [3]) is on record?
A: Its Activity is “inactive”.

Q: For `COc1ccc(-c2coc3cc(O[C@@H]4O[C@H](CO[C@@H]5OC[C@](O)(CO[C@@H]6OC[C@](O)(CO)[C@H]6O)[C@H]5O)[C@@H](O)[C@H](O)[C@H]4O)cc(O)c3c2=O)cc1`, which Activity (Calvarial osteoblast [3]) is on record?
A: The Activity was “inactive”.

Q: With `O=c1c(O[C@@H]2O[C@H](CO)[C@@H](O)[C@H](O)[C@H]2O)c(-c2ccc(O)c(O)c2)oc2cc(O)cc(O)c12` as the compound, how does the Activity (Calvarial osteoblast [3]) read?
A: The Activity was “inactive”.

Q: With `COc1cc([C@H]2OC[C@H]3[C@@H]2CO[C@@H]3c2cc(OC)c(O[C@@H]3O[C@H](CO)[C@@H](O)[C@H](O)[C@H]3O)c(OC)c2)cc(OC)c1O` as the compound, how does the Activity (Calvarial osteoblast [3]) read?
A: Its Activity is “inactive”.

Q: For `COc1ccc(-c2coc3cc(O)cc(O)c3c2=O)cc1O` [PRATENSEIN], which Activity (Ishikawa [1]) is on record?
A: The Activity was “inactive”.

Q: And the Activity (Calvarial osteoblast [3])?
A: Its Activity is “Active”.

Q: What about the Activity (Calvarial osteoblast [4]) of the same compound?
A: The Activity was “Active”.

Q: And the Activity [5]?
A: The Activity was “Non-toxic”.

Q: What about the Activity (Ishikawa [6]) of the same compound?
A: The Activity was “inactive”.

Q: What about the inhibition (Ishikawa [7]) of the same compound?
A: Its inhibition is “inactive”.

Q: And the Activity (Calvarial osteoblast [8])?
A: The Activity was “Active”.

Q: Which Activity (Ishikawa [9]) does the source give for `COc1ccc(-c2coc3cc(O)cc(O)c3c2=O)cc1` [BIOCHANIN] here?
A: The Activity was “Active”.

Q: What about the Activity (Calvarial osteoblast [3]) of the same compound?
A: Its Activity is “Active”.

Q: What about the Activity [5] of the same compound?
A: Its Activity is “Non-toxic”.

Q: And the Activity (Calvarial osteoblast [10])?
A: Its Activity is “inactive”.

Q: What about the Activity (Calvarial osteoblast [8]) of the same compound?
A: Its Activity is “Active”.

Q: For `COC(=O)C/C(=C\c1ccc(O)c(O)c1)C(=O)O`, which Activity (Calvarial osteoblast [3]) is on record?
A: The Activity was “inactive”.

Q: For `COc1cc(OC)c(-c2coc3cc(O[C@@H]4O[C@H](CO)[C@@H](O)[C@H](O)[C@H]4O)c(OC)c(O)c3c2=O)cc1OC`, which Activity (Calvarial osteoblast [3]) is on record?
A: Its Activity is “inactive”.

Q: For `COc1cc(OC)c(-c2coc3cc(O[C@@H]4O[C@H](CO[C@@H]5OC[C@](O)(CO)[C@H]5O)[C@@H](O)[C@H](O)[C@H]4O)c(OC)c(O)c3c2=O)cc1OC`, which Activity (Ishikawa [1]) is on record?
A: Its Activity is “inactive”.

Q: What about the fold change (FC) [2] of the same compound?
A: Its fold change (FC) is 15.

Q: What about the Activity (Calvarial osteoblast [3]) of the same compound?
A: The Activity was “Active”.

Q: And the Activity (Rattus norvegicus [11])?
A: The Activity was “Active”.

Q: And the Activity (Rattus norvegicus [12])?
A: The Activity was “inactive”.

Q: What about the Activity (Calvarial osteoblast [4]) of the same compound?
A: Its Activity is “Active”.

Q: What about the Activity (Calvarial osteoblast [13]) of the same compound?
A: The Activity was “Active”.

Q: And the Activity (Rattus norvegicus [14])?
A: The Activity was “Active”.

Q: What about the Activity [5] of the same compound?
A: Its Activity is “Non-toxic”.

Q: What about the Activity (Ishikawa [6]) of the same compound?
A: The Activity was “inactive”.

Q: What about the Activity (Rattus norvegicus [15]) of the same compound?
A: Its Activity is “Dose-dependent effect”.

Q: And the Activity (Rattus norvegicus [16])?
A: Its Activity is “inactive”.

Q: What about the Activity (Rattus norvegicus [17]) of the same compound?
A: The Activity was “Active”.

Q: What about the Activity (Rattus norvegicus [18]) of the same compound?
A: Its Activity is “inactive”.

Q: What about the inhibition (Ishikawa [7]) of the same compound?
A: The inhibition was “inactive”.

Q: And the Activity (Calvarial osteoblast [19])?
A: The Activity was “Active”.

Q: Which Activity (Calvarial osteoblast [3]) does the source give for `C[C@@H]1O[C@@H](OC[C@H]2O[C@@H](Oc3c(-c4ccc(O)c(O)c4)oc4cc(O)cc(O)c4c3=O)[C@H](O)[C@@H](O)[C@@H]2O)[C@H](O)[C@H](O)[C@H]1O` here?
A: Its Activity is “inactive”.

Q: Which Activity (Calvarial osteoblast [3]) does the source give for `O=c1c(O[C@@H]2O[C@H](CO)[C@@H](O)[C@H](O)[C@H]2O)c(-c2ccc(O)cc2)oc2cc(O)cc(O)c12` here?
A: The Activity was “inactive”.

Q: For `C[C@]12CC[C@@H]3c4ccc(O)cc4CC[C@H]3[C@@H]1CC[C@@H]2O` [ESTRADIOL], which “fold change (FC)” value (Ishikawa [20]) is on record?
A: Its value is 1.5.
